Literature values, collected in US20070092567A1 (GALEPHAR M/F, priority 2001, published 2007).
“Also recorded” adds a separate entry of the source. One block for each compound: values may come before it.

Assays:
cytochrome P450 3A4 = cytochrome P450 3A4 (Homo sapiens, UniProt P08684)
[1] = molecular target: cytochrome P450 2C9 isoenzyme (Homo sapiens, UniProt P11712)
[2] = not given; remark: listed apart in the source

Chain of cytochrome P450 3A4 (P08684 whole entry): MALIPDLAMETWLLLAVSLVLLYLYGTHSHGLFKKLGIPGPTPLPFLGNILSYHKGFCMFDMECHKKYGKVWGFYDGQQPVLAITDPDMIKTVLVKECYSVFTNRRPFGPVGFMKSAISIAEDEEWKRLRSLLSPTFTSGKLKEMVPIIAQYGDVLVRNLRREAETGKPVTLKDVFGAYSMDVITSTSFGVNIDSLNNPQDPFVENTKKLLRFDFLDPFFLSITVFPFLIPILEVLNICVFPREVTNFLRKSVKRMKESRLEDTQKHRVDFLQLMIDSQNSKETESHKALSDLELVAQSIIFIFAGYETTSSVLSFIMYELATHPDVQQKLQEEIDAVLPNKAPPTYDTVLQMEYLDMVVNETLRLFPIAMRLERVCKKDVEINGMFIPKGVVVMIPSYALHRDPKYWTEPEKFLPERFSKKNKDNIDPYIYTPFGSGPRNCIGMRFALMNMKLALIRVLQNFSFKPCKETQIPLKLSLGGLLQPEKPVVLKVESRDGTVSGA
Chain of cytochrome P450 2C9 isoenzyme (P11712 whole entry): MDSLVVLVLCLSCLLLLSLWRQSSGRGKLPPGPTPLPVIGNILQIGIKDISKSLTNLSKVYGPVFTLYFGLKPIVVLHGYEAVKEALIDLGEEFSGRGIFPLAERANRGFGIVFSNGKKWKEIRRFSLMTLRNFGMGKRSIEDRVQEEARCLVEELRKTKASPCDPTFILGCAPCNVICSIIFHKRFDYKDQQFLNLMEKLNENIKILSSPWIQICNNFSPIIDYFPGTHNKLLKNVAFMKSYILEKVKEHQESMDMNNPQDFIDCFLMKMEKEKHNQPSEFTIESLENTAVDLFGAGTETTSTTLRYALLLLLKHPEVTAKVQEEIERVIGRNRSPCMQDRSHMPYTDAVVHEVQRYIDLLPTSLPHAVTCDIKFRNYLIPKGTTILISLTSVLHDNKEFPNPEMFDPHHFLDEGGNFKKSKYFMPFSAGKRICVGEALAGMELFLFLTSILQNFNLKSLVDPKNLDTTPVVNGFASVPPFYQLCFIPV

metabolisation by cytochrome P450 3A4 (cytochrome P450 3A4): not metabolised by cytochrome P450 3A4
metabolisation by cytochrome P450 2C9 isoenzyme [1]: only weakly metabolised
Compound: CC(C)OC(=O)C(C)(C)Oc1ccc(C(=O)c2ccc(Cl)cc2)cc1 [Fenofibrate, p-(4-chlorobenzoyl)-phenoxy isobutyrate isopropyl ester]

mean plasma half-life (healthy, fasting young adults): 19.6 to 26.6 h
eliminated in the urine as fenofibric acid ester glucuronide (in vivo): 60-88%
Peak plasma levels (single oral dose of 300 mg fenofibrate): 6 to 9.5 mg/L
Compound: CC(C)(Oc1ccc(C(=O)c2ccc(Cl)cc2)cc1)C(=O)O [fenofibric acid]

average oral absorption ([2]; based on urinary recovery of radiolabeled drug): 34%
decrease of systemic bioavailability following a bedtime dose compared to morning administration ([2]; human, in vivo): 60%
Compound: CC[C@H](C)C(=O)O[C@H]1C[C@H](O)C=C2C=C[C@H](C)[C@H](CC[C@@H](O)C[C@@H](O)CC(=O)O)[C@H]21 [pravastatin]
metabolisation through the cytochrome P450 system (cytochrome P450 system): not metabolised through the cytochrome P450 system; also recorded: does not involve the cytochrome P450 system
